The conditions of series [1]: general statement; cited from earlier work.
Series [2] in a line: Pig skin (in vitro) transdermal penetration. Format: in vitro ADME, Yucatan miniature pig. The procedure:
The test procedure is as described for rat skin studies with the exception that excised pig skin samples from Yucatan miniature pigs are utilized.
To address this issue, in vitro skin penetration of tripelennamine (TPL) in 2 saturated aqueous solutions, was measured using pig skin in accordance with the Pig Skin (in vitro) procedure earlier outlined. One solution contained 0.5% IMI. The other solution served as an aqueous control (buffered with NaOH to the same pH as the IMI containing solution).
Since all skin sections are dermatomed to 380 microns, h is a constant. In each composition of Table 5, the vehicle was saturated with the pharmacologic agent. Therefore, the "leaving tendency", or the thermodynamic activity of the pharmacologic agent in the vehicle, remained unchanged (K is the same for both compositions). this means that D must increase in order to explain the 3-fold increase in transdermal penetration. This is indicative of a true enhancement effect of topically applied IMI. The results of Table 5, substantiate that IMI acts as a true skin penetration enhancer. […] This may be one reason why use of a transdermal penetration enhancing amount of a selected imidazole or imidazole derivative of the present invention, in conjunction with a pharmacologically active agent whose transdermal penetration is capable of being enhanced, affords the advantageous enhancement of penetration achieved by the present invention.

For series [3] the following is noted: for Increase in penetration relative to control: multiple of average control determination. The procedure:
Polyoxyethylene stearyl ethers, 3 wt. %
Polyoxypropylene fatty alcohol ethers, 3 wt. %
Deionized water, 94 wt. %
Further, in all cases, unless otherwise noted, the tests were carried out at 37° C. and results were compared to penetration data for the same material in the oil/water emulsion base. Moreover, all percentages of composition components recited are, unless otherwise indicated, weight percent (wt. %) and are based upon the total weight of the composition.
The test method is carried out as follows:
A. Prior to testing, rats are routinely acclimated to the laboratory environment for seven days and gross observations are made to ensure good health of the animals to be tested.
B. Female Sprague Dawley rats (190-240 gm) are selected for testing and identified by cage label and ear tag number.
C. Diffusion Cell Preparation.
1. An O-ring is placed on a standard Franz Diffusion Cell. A stir bar is placed in the receptor compartment. Each cell is filled with approximately 4.5 ml sterile physiologic saline (receptor compartments are calibrated to contain 5.0 ml).
2. The jacketed diffusion cells are maintained at 37° C.±1° (or alternatively desired temperature) using an external water bath and a circulating pump.
D. Skin Section Preparation and Mounting
1. Test animals are sacrificed by intraperitoneal injection of 0.4 ml/100 gm. body weight sodium pentobarital (1 gm/ml).
2. The backs are lightly shaved using electric hair clippers.
3. A section of skin, measuring approximately 8 cm long by 7 cm wide, is removed from the back of each rat using a No. 20 scalpel assuring that the skin section is free from subcutaneous fat.
4. A piece of the skin section is mounted over an O-ring on the diffusion cell, epidermal side facing up. The donor compartment is placed on top of the skin section making a complete seal over the skin. A clamp is used to secure the skin section in place.
5. Air bubbles that collect under the skin are removed by inverting the diffusion cell and tapping it gently. The receptor compartment is filled with sterile physiologic saline to 5.0 ml.
E. Application of Test Materials
1. Test and control materials are applied to the skin using s syringe or spatula. The material is spread evenly and completely over the exposed skin surface using the tip of the syringe/spatula.
1. An HPLC carousel is loaded with microvials. Springs and inserts are placed into the microvials.
2. Receptor compartments are sampled at desired time intervals using a microliter (μl) syringe. The sample (approximately 160 μl) is placed into the insert. The microvial is sealed with a plastic cap.
3. When multiple sampling is required, the receptor compartment is replenished with sterile physiologic saline to maintain a 5.0 ml volume.
Samples are analyzed using standard analytical techniques. The presence of test material in the samples is indicative of transdermal penetration.

The conditions of series [4]: cited from earlier work.
Series [5] in a line: Human skin (in vitro) transdermal penetration. Format: in vitro ADME. The settings on record: Table 4. The source says:
The test procedure is as described for rat skin studies with the exception that normal excised human skin samples obtained from breast reduction surgery are utilized.
As shown by the results of Table 4, imidazole enhanced xylometazoline penetration through human skin 5.3 fold.

Where [6] appears, read: B + 1% drug + 0.5% IMI, Table 3.
Setting [7] is: B + 5% TPL + 5% XYL, Table 3 Study I.
Where [8] appears, read: B + 5% TRP + 5% XYL, Table 3 Study II.

The values below come from US5164406A, “Method for enhancing transdermal penetration and compositions useful therein” (priority 1989, dated 1992).

Counter-ions that a name gives are not always drawn. Like-named read-outs stand apart in the source and are kept apart here.

For `Cn1cc[n+](C)c1` [Compound Ia], the Heat stability result in series [1] was “unstable to heat”.
On to `c1c[nH]cn1` [IMIDAZOLE, imidazole], for which the “Increase in skin permeation of TPL” value in series [2] (0.5% IMI in saturated aqueous TPL solution) was found to be 3 fold. Also, the figures for the “24 hour penetration of tripelennamine HCl (total micrograms base)” value in series [3] (2% TPL in B + 0.01% imidazole), in series [3] (2% TPL in B + 0.1% imidazole) and in series [3] (2% TPL in B + 1.0% imidazole) were 208 micrograms base, 413 micrograms base and 662 micrograms base, respectively. Besides, the “TPL penetration increased as compared to the control” value in series [3] (2% TPL in B, imidazole up to 1.0%, Table 1) is “approximately 340%”. Besides, the results for the “Increase in penetration relative to control” value in series [3] (2% TPL in B + 0.01% imidazole), in series [3] (2% TPL in B + 0.1% imidazole) and in series [3] (2% TPL in B + 1.0% imidazole) were 1.1, 2.1 and 3.4, respectively.
With `CN(C)CCN(Cc1ccccc1)c1ccccn1` [TPL, TRIPELENNAMINE HCL, reference compound], the “Increase in skin permeation of TPL” value in series [2] is recorded as “approximately 3 fold”. The “24 hour penetration (total micrograms base)” value in series [2] (aqueous control: saturated TPL/H2O, buffered with NaOH to the same pH, Table 5) worked out at 132 micrograms base; in series [2] (saturated TPL/H2O + 0.5% IMI, Table 5), 363 micrograms base; in series [3] it was 196 micrograms base. Also, in series [2] (multiple of average control determinations, saturated TPL/H2O + 0.5% IMI, Table 5), the “Increase in penetration relative to control” value was determined as 2.75. Also, the “Increase in TPL penetration” value in series [3] amounted to 270%. Moreover, in series [3], the “Penetration of TPL enhanced by” value stood at 1190%. For the same molecule, the Skin irritation result in series [4] (IPM at 0.5%) is “little or no skin irritation”; in series [4] (IPM levels sufficient to enhance transdermal penetration), “generally are irritating to skin”.
With `Cc1cc(C(C)(C)C)cc(C)c1CC1=NCCN1` [XYL, XYLO[…], HCL, reference compound], the “Penetration enhanced by imidazole” value in series [3] (1% drug with 0.5% imidazole, Table 3 Studies V and VI) is 610%. Besides, the “24 hour penetration (total micrograms base)” value was found to be 613 micrograms base in series [3] (setting [6]); 444 micrograms base in series [3] (setting [7]); 1053 micrograms base in series [3] (setting [8]); 100 micrograms base in series [3] (control: 1% of the drug alone in B, Table 3); 544 micrograms base in series [3] (control: 5% of the drug alone in B, Table 3); 203 micrograms base in series [5] (B + 2% XYL + 0.5% IMI). In addition, the “24 hour penetration (total micrograms base)” value in series [5] (control: B + 2% XYL) is on record as 38 micrograms base. In series [3] (combination of TPL and XYL vs XYL alone, Table 3 Study I), the “Penetration of XYL” value is “remained fairly constant”. Besides, the “Increase in transdermal penetration” value in series [3] (combination of TRP and XYL, Table 3 Study II) is 90%. The “Increase in penetration relative to control” value turned out to be 6.1 in series [3] (setting [6]); 0.8 in series [3] (setting [7]); 1.9 in series [3] (setting [8]); 5.3 in series [5] (multiple of average control determination, B + 2% XYL + 0.5% IMI). Also, in series [5] (2% XYL with 0.5% imidazole), the “Imidazole enhanced xylometazoline penetration through human skin” value came out at 5.3 fold.
As for `Cn1ccn(C)c1=O` [compound IIa], the Heat stability result in series [1] is “heat stable”.
